In ChEMBL document CHEMBL1141329, “Cyclic peptides from an endophytic fungus obtained from a mangrove leaf (Kandelia candel)” (J Nat Prod, 2007):
Values after ≈ are worked out from the molar mass of the structure shown.

Tested on: MCF7
Experiment: Antitumor activity against human MCF7 cells by MTT assay
Type: functional, cell-based

IC50: 100 µg/mL (≈ 166 µM)
SMILES: CC(C)C[C@@H]1OC(=O)CNC(=O)[C@H](C(C)C)NC(=O)[C@H](Cc2ccc(O)cc2)NC(=O)CNC(=O)[C@@H](CC(C)C)NC1=O
